From patent US8999374B2, “Method of inhibiting salmonella in livestock and poultry” (priority 2002, dated 2015)

Tested on: Salmonella enteritidis KTE-61 strain
Test: Inhibition test of salmonella/yeast agglutination
Assay type: cell-based
Method: Inhibition tests of salmonella agglutination were carried out on various saccharides as follows. […] Preliminary test was carried out for observing by stereoscopic microscope (OLYMPUS Co., Ltd) that agglutination occurs in this liquid mixture.
Next, in a similar manner to the aforementioned preliminary test, with the use of aqueous solution of saccharide where the aforementioned taken β-1,4-mannobiose and a mannose reagent (D-Mannose; Wako Pure Chemical Industries, Ltd.) were used instead of distilled water, the minimum concentration for inhibiting agglutination of liquid mixture (the minimum concentration for inhibiting agglutination) was obtained by varying the concentration, respectively. The actual minimum concentration for inhibiting the agglutination in liquid mixture and the relative concentration (ratio of concentration) when the minimum concentration for inhibiting agglutination of mannose is set 1 are shown in table 1.

SMILES: OC[C@H]1O[C@@H](O[C@H]2[C@H](O)[C@H](O)C(O)O[C@@H]2CO)[C@@H](O)[C@@H](O)[C@@H]1O (stereo partly drawn) [Mannobiose, β-1,4-mannobiose]
- minimum concentration for inhibiting agglutination, Actual Concentration (Salmonella enteritidis KTE-61 with yeast Candida albicans KI-102001, concentration in liquid mixture): 1290 µg/mL
- Relative Concentration (Based on Mannose) (minimum concentration for inhibiting agglutination, mannose set to 1): 2.173
